One assay addresses Insulin receptor (Homo sapiens, UniProt P06213). Nature of the assay: Inhibition of IRK by DELPHIA.
Assay [1] addresses T1, Tyrosine-protein kinase ITK/TSK (Homo sapiens, UniProt Q08881).
T1 sequence (Q08881 whole entry): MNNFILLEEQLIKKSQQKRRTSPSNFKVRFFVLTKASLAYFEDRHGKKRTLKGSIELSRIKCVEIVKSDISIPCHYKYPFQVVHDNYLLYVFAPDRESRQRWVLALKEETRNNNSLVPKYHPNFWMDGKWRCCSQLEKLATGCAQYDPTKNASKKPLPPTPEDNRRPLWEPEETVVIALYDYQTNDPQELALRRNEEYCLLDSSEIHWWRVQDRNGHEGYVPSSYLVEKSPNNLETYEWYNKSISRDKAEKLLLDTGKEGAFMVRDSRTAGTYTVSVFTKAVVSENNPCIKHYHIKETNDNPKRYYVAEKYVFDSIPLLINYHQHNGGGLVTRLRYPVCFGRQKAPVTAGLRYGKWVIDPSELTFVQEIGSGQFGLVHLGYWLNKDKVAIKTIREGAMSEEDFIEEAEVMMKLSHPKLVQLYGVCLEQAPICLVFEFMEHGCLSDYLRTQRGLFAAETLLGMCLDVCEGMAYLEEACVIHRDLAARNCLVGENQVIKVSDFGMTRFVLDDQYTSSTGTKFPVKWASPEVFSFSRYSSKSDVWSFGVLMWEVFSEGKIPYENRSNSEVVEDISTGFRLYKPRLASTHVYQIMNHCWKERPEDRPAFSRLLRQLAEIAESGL
Nature of the assay: Inhibition of ITK by DELPHIA.

Assay [2] concerns the target T1, Tyrosine-protein kinase ITK/TSK. Nature of the assay: Antagonist activity at ITK expressed in chicken DT40 B cells assessed as inhibition of calcium flux. Type of assay: functional, cell-based.
Assay [3] concerns the target T2, Tyrosine-protein kinase TXK (Homo sapiens, UniProt P42681).
T2 sequence (P42681 whole entry): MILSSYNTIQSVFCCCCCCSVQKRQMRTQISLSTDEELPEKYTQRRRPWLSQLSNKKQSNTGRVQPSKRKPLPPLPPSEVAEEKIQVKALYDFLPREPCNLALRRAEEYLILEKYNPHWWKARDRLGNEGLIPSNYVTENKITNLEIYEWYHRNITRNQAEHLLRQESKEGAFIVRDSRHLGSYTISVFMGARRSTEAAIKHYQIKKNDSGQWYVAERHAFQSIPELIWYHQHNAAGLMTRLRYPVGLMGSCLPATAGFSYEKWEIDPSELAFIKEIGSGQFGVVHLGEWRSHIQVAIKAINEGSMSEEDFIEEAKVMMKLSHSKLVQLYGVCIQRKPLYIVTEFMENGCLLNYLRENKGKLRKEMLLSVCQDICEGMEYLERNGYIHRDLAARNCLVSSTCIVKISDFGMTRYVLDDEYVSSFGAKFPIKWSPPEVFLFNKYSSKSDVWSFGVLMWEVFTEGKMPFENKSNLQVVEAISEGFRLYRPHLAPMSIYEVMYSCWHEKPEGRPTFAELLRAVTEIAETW
Nature of the assay: Inhibition of TXK.

The test system of the next assay is T-cell. Nature of the assay: Inhibition of anti-CD3/anti-CD28-stimulated IL2 production in human CD4+ T cells.
The target in assay [4] is Tyrosine-protein kinase BTK (Homo sapiens, UniProt Q06187). Nature of the assay: Inhibition of BTK.
Chain of Tyrosine-protein kinase BTK (Q06187 whole entry): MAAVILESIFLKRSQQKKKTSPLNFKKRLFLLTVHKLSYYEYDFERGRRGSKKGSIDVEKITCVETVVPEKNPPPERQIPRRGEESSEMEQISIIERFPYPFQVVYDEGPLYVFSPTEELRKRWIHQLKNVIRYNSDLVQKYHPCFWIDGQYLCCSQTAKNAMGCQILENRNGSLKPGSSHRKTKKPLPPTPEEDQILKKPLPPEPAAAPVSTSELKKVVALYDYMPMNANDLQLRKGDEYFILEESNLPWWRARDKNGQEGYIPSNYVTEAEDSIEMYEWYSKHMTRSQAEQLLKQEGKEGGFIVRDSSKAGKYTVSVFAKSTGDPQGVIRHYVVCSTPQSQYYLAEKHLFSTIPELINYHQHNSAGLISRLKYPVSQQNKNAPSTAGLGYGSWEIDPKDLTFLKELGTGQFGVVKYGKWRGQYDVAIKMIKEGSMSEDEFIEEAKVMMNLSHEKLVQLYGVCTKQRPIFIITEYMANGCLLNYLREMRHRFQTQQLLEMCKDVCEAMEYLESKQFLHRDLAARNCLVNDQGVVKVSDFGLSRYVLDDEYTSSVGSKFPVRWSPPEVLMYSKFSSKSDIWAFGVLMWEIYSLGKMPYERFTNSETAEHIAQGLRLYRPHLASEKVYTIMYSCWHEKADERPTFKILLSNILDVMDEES

Chain of Insulin receptor (P06213 28-758 limits assumed): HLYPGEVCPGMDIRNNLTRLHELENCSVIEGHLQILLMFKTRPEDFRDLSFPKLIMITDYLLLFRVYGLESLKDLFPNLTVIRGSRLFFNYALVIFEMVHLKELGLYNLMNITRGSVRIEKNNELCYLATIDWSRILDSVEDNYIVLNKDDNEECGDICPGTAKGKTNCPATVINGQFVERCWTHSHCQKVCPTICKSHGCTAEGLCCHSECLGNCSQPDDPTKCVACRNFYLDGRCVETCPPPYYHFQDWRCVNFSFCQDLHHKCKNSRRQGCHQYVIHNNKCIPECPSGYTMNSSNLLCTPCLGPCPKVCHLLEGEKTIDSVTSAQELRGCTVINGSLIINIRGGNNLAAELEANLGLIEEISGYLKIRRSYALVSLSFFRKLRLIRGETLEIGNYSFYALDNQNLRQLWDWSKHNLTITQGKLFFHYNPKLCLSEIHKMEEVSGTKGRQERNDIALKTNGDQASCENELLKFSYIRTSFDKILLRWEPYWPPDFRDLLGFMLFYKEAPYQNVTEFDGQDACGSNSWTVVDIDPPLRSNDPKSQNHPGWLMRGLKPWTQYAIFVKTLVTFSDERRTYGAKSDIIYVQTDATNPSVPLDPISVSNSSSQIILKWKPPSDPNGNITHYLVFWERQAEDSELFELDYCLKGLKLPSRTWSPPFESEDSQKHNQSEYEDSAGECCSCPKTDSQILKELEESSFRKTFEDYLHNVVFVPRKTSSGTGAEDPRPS
Chain of Insulin receptor (P06213 763-1382 limits assumed): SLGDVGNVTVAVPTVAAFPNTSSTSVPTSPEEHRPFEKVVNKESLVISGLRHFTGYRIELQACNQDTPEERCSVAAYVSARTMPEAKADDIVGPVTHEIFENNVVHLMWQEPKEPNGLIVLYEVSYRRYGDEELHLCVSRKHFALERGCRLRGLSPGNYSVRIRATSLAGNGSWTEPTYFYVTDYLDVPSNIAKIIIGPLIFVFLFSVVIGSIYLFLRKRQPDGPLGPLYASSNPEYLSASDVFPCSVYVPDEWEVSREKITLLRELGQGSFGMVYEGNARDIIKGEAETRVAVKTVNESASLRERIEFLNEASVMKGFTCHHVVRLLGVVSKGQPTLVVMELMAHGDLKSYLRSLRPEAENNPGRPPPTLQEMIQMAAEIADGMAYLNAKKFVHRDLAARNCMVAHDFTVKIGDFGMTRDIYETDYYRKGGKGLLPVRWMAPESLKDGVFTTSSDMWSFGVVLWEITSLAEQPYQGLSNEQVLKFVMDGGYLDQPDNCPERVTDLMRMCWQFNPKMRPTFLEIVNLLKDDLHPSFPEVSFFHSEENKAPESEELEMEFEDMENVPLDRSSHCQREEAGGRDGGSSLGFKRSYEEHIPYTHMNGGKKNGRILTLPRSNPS

Turning to `C/C(=C\C#N)c1ccc(C(=O)/N=c2\[nH]c3cc(N(C)C(=O)c4ccccc4)ccc3n2CCC(N)=O)s1`, the IC50 on Insulin receptor turned out to be 4500 nM. For the molecule `CN(C(=O)c1ccccc1)c1ccc2c(c1)[nH]/c(=N\C(=O)c1ccc(/C=C/n3ccnc3)s1)n2CCC(N)=O`, the IC50 on Insulin receptor is over 5000 nM; in assay [1], 12 nM; in assay [2], 2200 nM. `C/C(=C\c1cccnc1)c1ccc(C(=O)/N=c2\[nH]c3cc(N(C)C(=O)c4ccccc4)ccc3n2CCC(N)=O)s1` had a half-inhibitory concentration (IC50) at Insulin receptor of over 5000 nM. For `C/C(=C\c1ccncc1)c1ccc(C(=O)/N=c2\[nH]c3cc(N(C)C(=O)c4ccccc4)ccc3n2CCC(N)=O)s1`, on Insulin receptor, the IC50 is over 5000 nM. `CN(C(=O)c1ccccc1)c1ccc2c(c1)[nH]/c(=N\C(=O)c1ccc(/C=C/c3cccc([N+](=O)[O-])c3)s1)n2CCC(N)=O`: the IC50 against Insulin receptor turned out to be 4300 nM.

In turn, `C=C(C)c1ccc(C(=O)/N=c2\[nH]c3cc(N(C)C(=O)c4ccccc4)ccc3n2CCC(N)=O)s1` came in with an IC50 against Insulin receptor of over 5000 nM. For the molecule `CN(C(=O)c1ccccc1)c1ccc2c(c1)[nH]/c(=N\C(=O)c1ccc(/C=C/c3cccnc3)s1)n2CCC(N)=O`, the IC50 against Insulin receptor was over 5000 nM. For the molecule `C=Cc1ccc(C(=O)Nc2nc3cc(N(C)C(=O)c4ccccc4)ccc3n2CCC(N)=O)s1`, the IC50 at Insulin receptor was found to be 480 nM. For `CN(C(=O)c1ccccc1)c1ccc2c(c1)[nH]/c(=N\C(=O)c1ccc(/C=C/c3ccc(C(F)(F)F)cc3)s1)n2CCC(N)=O`, the IC50 against Insulin receptor is over 5000 nM. Regarding `CN(C(=O)c1ccccc1)c1ccc2c(c1)[nH]/c(=N\C(=O)c1ccc(/C=C/c3ncc(N)cn3)s1)n2CCC(N)=O`, the IC50 came out at 700 nM in assay [3]; 1500 nM at Insulin receptor; 1600 nM with T-cell; 5 nM in assay [4]; 5 nM in assay [1]; 410 nM in assay [2]. With `C/C(=C\c1ccccc1)c1ccc(C(=O)Nc2nc3cc(N(C)C(=O)c4ccccc4)ccc3n2CCC(N)=O)s1`, at Insulin receptor, the IC50 is over 5000 nM. With `COc1cccc(/C=C/c2ccc(C(=O)Nc3nc4cc(N(C)C(=O)c5ccccc5)ccc4n3CCC(N)=O)s2)c1`, at Insulin receptor, the IC50 was over 5000 nM. On Insulin receptor, `CN(C(=O)c1ccccc1)c1ccc2c(c1)[nH]/c(=N\C(=O)c1ccc(/C=C/c3ccncc3)s1)n2CCC(N)=O` had an IC50 of over 5000 nM. As to `CN(C(=O)c1ccccc1)c1ccc2c(c1)[nH]/c(=N\C(=O)c1ccc(/C=C/c3cccc(N)n3)s1)n2CCC(N)=O`, the values for the IC50 (at Insulin receptor; in assay [1]; in assay [2]) were 3800 nM, 7 nM and 2000 nM, respectively. `CN(C(=O)c1ccccc1)c1ccc2c(c1)[nH]/c(=N\C(=O)c1ccc(/C=C/c3ccccc3C(F)(F)F)s1)n2CCC(N)=O` yielded an IC50 against Insulin receptor of over 5000 nM. In the case of `CN(C(=O)c1ccccc1)c1ccc2c(c1)[nH]/c(=N\C(=O)c1ccc(/C=C/c3cnccn3)s1)n2CCC(N)=O`, the IC50 at Insulin receptor is over 5000 nM; in assay [1] it was 8 nM; in assay [2], 810 nM. Molecule `COc1ccc(/C=C/c2ccc(C(=O)/N=c3\[nH]c4cc(N(C)C(=O)c5ccccc5)ccc4n3CCC(N)=O)s2)cc1` gave an IC50 at Insulin receptor of over 5000 nM. As to `CN(C(=O)c1ccccc1)c1ccc2c(c1)nc(NC(=O)c1ccc(/C=C/c3cccc(C(F)(F)F)c3)s1)n2CCC(N)=O`, at Insulin receptor, the IC50 was over 5000 nM. As for `COC(=O)/C=C(\C)c1ccc(C(=O)/N=c2\[nH]c3cc(N(C)C(=O)c4ccccc4)ccc3n2CCC(N)=O)s1`, the IC50 against Insulin receptor came to 3600 nM. In the case of `CN(C(=O)c1ccccc1)c1ccc2c(c1)[nH]/c(=N\C(=O)c1ccc(/C=C/c3ccccc3)s1)n2CCC(N)=O`, the IC50 against Insulin receptor amounted to 970 nM. Molecule `CN(C(=O)c1ccccc1)c1ccc2c(c1)nc(NC(=O)c1cccs1)n2CCC(N)=O` showed an IC50 with T-cell of over 5000 nM. As for `COc1ccccc1/C=C/c1ccc(C(=O)/N=c2\[nH]c3cc(N(C)C(=O)c4ccccc4)ccc3n2CCC(N)=O)s1`, the half-maximal inhibitory concentration (IC50) against Insulin receptor was over 5000 nM. The same measure, in the same setting: the result for `CN(C(=O)c1ccccc1)c1ccc2c(c1)[nH]/c(=N\C(=O)c1ccc(/C=C/c3ccc(O)cc3)s1)n2CCC(N)=O` reads 2200 nM; that for `COC(=O)/C=C/c1ccc(C(=O)/N=c2\[nH]c3cc(N(C)C(=O)c4ccccc4)ccc3n2CCC(N)=O)s1`, over 5000 nM. Take `CN(C(=O)c1ccccc1)c1ccc2c(c1)[nH]/c(=N\C(=O)c1ccc(/C=C/c3cn[nH]c3)s1)n2CCC(N)=O`: the midpoint of inhibition in the assay with T-cell, the IC50, lay at 3000 nM. The molecule `CN(C(=O)c1ccccc1)c1ccc2c(c1)[nH]/c(=N\C(=O)c1ccc(/C=C/c3ccccc3N)s1)n2CCC(N)=O` gave an IC50 against Insulin receptor of 1950 nM. `CN(C(=O)c1ccccc1)c1ccc2c(c1)nc(NC(=O)c1ccc(/C=C/c3ccc(N)cc3)s1)n2CCC(N)=O` displayed an IC50 on Insulin receptor of 3300 nM. Molecule `CN(C(=O)c1ccccc1)c1ccc2c(c1)[nH]/c(=N\C(=O)c1ccc(/C=C/c3cccc(N)c3)s1)n2CCC(N)=O` displayed an IC50 against Insulin receptor of 4900 nM.

For the origin of these results see ChEMBL document CHEMBL1152261, “2-Aminobenzimidazoles as potent ITK antagonists: trans-stilbene-like moieties targeting the kinase specificity pocket” (Bioorg Med Chem Lett, 2008).
